The target in one test is T1, RORγ-LBD (Homo sapiens, UniProt P51449).
T1 construct: made in house; host or cells: SF9 cells (baculovirus)
T1 sequence (P51449 269-508 limits assumed): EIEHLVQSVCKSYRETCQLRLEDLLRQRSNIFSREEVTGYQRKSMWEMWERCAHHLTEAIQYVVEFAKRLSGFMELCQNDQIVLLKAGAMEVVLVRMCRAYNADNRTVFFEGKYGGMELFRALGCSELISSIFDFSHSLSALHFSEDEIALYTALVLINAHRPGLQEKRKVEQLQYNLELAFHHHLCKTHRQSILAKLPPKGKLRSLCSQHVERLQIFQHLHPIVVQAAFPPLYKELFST
The test is described as follows: RORγ-Ligand Binding Domain (LBD) TR-FRET Assay.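 As to TR-FRET Assay Max Response: 665/615 nm ratio relative to signal without ursolic acid or compound set at 100.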 The format is biochemical. In short, it runs like this: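 Compounds, diluted in DMSO and then in assay buffer (1% DMSO final), were combined with His-tagged RORγ-LBD lysate at roughly 3 nM final and a 200 nM biotinylated SRC1 LXXLL peptide. Ursolic acid was included at 2 μM final. Coactivator recruitment was detected by TR-FRET.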
In general terms: Time-resolved FRET reads energy transfer from a long-lived donor to a nearby acceptor.

Another test concerns the target T2, Gal4-RORγ-LBD (Homo sapiens, UniProt P51449).
T2 construct: expressed in transfected cells; host or cells: HEK-293 cells (pcDNA3.1neo plasmid)
T2 sequence (P51449 269-508 limits assumed): T1 sequence (P51449 269-508 limits assumed)
The test is described as follows: Gal4-RORγ Luciferase Reporter Assay in HEK-293T Cells. The format is cell-based. Conditions: HEK-293 cells. Summed up: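 HEK-293 cells were transiently co-transfected with Gal4-RORγ-LBD and pGL4.31 Gal4-luciferase, with ursolic acid added at 2 μM final. Compounds were incubated overnight at 37° C. in 0.2% DMSO and luminescence read with One-Glo. Max Response is the upper plateau of a 4-parameter logistic fit, with signal lacking ursolic acid or compound set to 100.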

[1] abbreviates: luciferase reporter, with 2 μM ursolic acid.

Results on 14 compounds are retold here after patent publication US10611740B2, “Aryl dihydro-2H-benzo[b][1,4]oxazine sulfonamide and related compounds for use as agonists of RORγ and the treatment of disease” (Lycera Corporation, priority 2015, dated 2020).

By EC50 is commonly meant the concentration that produces a half-maximal response. A low value points to greater potency.

A value given as a limit tells only on which side of the number the result lay.

In the case of `O=C(CC[C@H]1CN(S(=O)(=O)c2cccc(C(F)(F)F)c2)c2cc(-c3ccc(F)cc3F)ccc2O1)NS(=O)(=O)c1ccccc1` [Compound 43A, (S)-3-(6-(2,4-difluorophenyl)-4-((3-(trifluoromethyl)phenyl)-sulfonyl)-3,4-dihydro-2H-benzo[b][1,4]oxazin-2-yl)-N-(phenylsulfonyl)propanamide], at RORγ-LBD, the EC50 is less than 500 nM and the “TR-FRET Assay Max Response” value is given as “**** (The symbol “****” indicates a value greater than 200)”. For the same compound, on Gal4-RORγ-LBD (setting [1]), the EC50 lay within 500 to 5000 nM and the “Gal4-RORγ Assay Max Response” value is “*** (The symbol “***” indicates a value in the range of greater than 150 to 200)”.

Take `O=C(O)[C@@H](O)CC[C@H]1CN(S(=O)(=O)c2cccc(C(F)(F)F)c2)c2cc(-c3cc(F)ccc3F)ccc2O1` [Compound 37, (S)-4-((S)-6-(2,5-difluorophenyl)-4-((3-(trifluoromethyl)phenyl)sulfonyl)-3,4-dihydro-2H-benzo[b][1,4]oxazin-2-yl)-2-hydroxybutanoic acid]: on RORγ-LBD, the EC50 was less than 500 nM and the “TR-FRET Assay Max Response” value is listed as “*** (The symbol “***” indicates a value in the range of greater than 150 to 200)”. For the same compound, on Gal4-RORγ-LBD (setting [1]), the EC50 was 500 to 5000 nM and the “Gal4-RORγ Assay Max Response” value is recorded as “*** (The symbol “***” indicates a value in the range of greater than 150 to 200)”.

As to `O=C(O)C1CCN(C(=O)CC[C@H]2CN(S(=O)(=O)c3cccc(C(F)(F)F)c3)c3cc(-c4cccc(Cl)c4)ccc3O2)CC1` [Compound 23C, (S)-1-(3-(6-(3-chlorophenyl)-4-((3-(trifluoromethyl)phenyl)-sulfonyl)-3,4-dihydro-2H-benzo[b][1,4]oxazin-2-yl)propanoyl)piperidine-4-carboxylic acid], on RORγ-LBD, the EC50 is less than 500 nM and the “TR-FRET Assay Max Response” value is “*** (The symbol “***” indicates a value in the range of greater than 150 to 200)”. Also, at Gal4-RORγ-LBD (setting [1]), the EC50 is less than 500 nM and the “Gal4-RORγ Assay Max Response” value was “** (The symbol “**” indicates a value in the range of greater than 90 to 150)”.

Take `O=C(O)CC[C@H]1CN(S(=O)(=O)c2cccc(C(F)(F)F)c2)c2cc(-c3cccc(Cl)c3)cc(F)c2O1` [Compound 8, (S)-3-(6-(3-chlorophenyl)-8-fluoro-4-((3-(trifluoromethyl)phenyl)sulfonyl)-3,4-dihydro-2H-benzo[b][1,4]oxazin-2-yl)propanoic acid]: on RORγ-LBD, the EC50 is less than 500 nM and the “TR-FRET Assay Max Response” value was “**** (The symbol “****” indicates a value greater than 200)”. On Gal4-RORγ-LBD (setting [1]), the EC50 was less than 500 nM and the “Gal4-RORγ Assay Max Response” value is listed as “** (The symbol “**” indicates a value in the range of greater than 90 to 150)”.

For `O=C(O)CC[C@H]1CN(S(=O)(=O)c2cccc(C(F)(F)F)c2)c2cc(-c3cccc(C(F)(F)F)n3)cc(F)c2O1` [Compound 22A, (S)-3-(8-fluoro-4-((3-(trifluoromethyl)phenyl)-sulfonyl)-6-(6-(trifluoromethyl)pyridin-2-yl)-3,4-dihydro-2H-benzo[b][1,4]oxazin-2-yl)propanoic acid], on RORγ-LBD, the EC50 is less than 500 nM and the “TR-FRET Assay Max Response” value was “**** (The symbol “****” indicates a value greater than 200)”. Also, on Gal4-RORγ-LBD (setting [1]), the 50% effective concentration (EC50) was less than 500 nM and the “Gal4-RORγ Assay Max Response” value is on record as “** (The symbol “**” indicates a value in the range of greater than 90 to 150)”.

With `O=C(O)C1CCN(C(=O)NCC[C@H]2CN(S(=O)(=O)c3cccc(C(F)(F)F)c3)c3cc(-c4cc(F)ccc4F)ccc3O2)CC1` [Compound 23T, (S)-1-((2-(6-(2,5-difluorophenyl)-4-((3-(trifluoromethyl)phenyl)-sulfonyl)-3,4-dihydro-2H-benzo[b][1,4]oxazin-2-yl)ethyl)carbamoyl)piperidine-4-carboxylic acid], at RORγ-LBD, the EC50 was less than 500 nM and the “TR-FRET Assay Max Response” value is reported as “**** (The symbol “****” indicates a value greater than 200)”. Besides, on Gal4-RORγ-LBD (setting [1]), the EC50 is less than 500 nM and the “Gal4-RORγ Assay Max Response” value was “** (The symbol “**” indicates a value in the range of greater than 90 to 150)”.

With `COc1cccc(-c2ccc3c(c2)N(S(=O)(=O)c2cccc(C(F)(F)F)c2)C[C@H](CC(C)(C)C(=O)O)O3)c1OC` [Compound 32V, (S)-3-(6-(2,3-dimethoxyphenyl)-4-((3-(trifluoromethyl)phenyl)-sulfonyl)-3,4-dihydro-2H-benzo[b][1,4]oxazin-2-yl)-2,2-dimethylpropanoic acid], on RORγ-LBD, the EC50 was less than 500 nM and the “TR-FRET Assay Max Response” value was “*** (The symbol “***” indicates a value in the range of greater than 150 to 200)”. At Gal4-RORγ-LBD (2 μM ursolic acid), the EC50 is less than 500 nM and the “Gal4-RORγ Assay Max Response” value was “** (The symbol “**” indicates a value in the range of greater than 90 to 150)”.

On to `CC(C)c1cccc(S(=O)(=O)N2C[C@H](CCNC(=O)C(C)(C)O)Oc3ccc(-c4cc(F)ccc4F)cc32)c1` [Compound 30D, (S)-N-(2-(6-(2,5-difluoro-phenyl)-4-((3-isopropylphenyl)-sulfonyl)-3,4-dihydro-2H-benzo[b][1,4]oxazin-2-yl)ethyl)-2-hydroxy-2-methylpropanamide], for which, on RORγ-LBD, the EC50 was less than 500 nM and the “TR-FRET Assay Max Response” value is “**** (The symbol “****” indicates a value greater than 200)”. On Gal4-RORγ-LBD (setting [1]), the EC50 is less than 500 nM and the “Gal4-RORγ Assay Max Response” value is “* (The symbol “*” indicates a value in the range of 25 to 90)”.

For `COc1cc(S(=O)(=O)N2C[C@H](CCNC(=O)C(C)(C)O)Oc3ccc(-c4cccc(C(F)(F)F)n4)cc32)ccc1F` [Compound 30O, (S)-N-(2-(4-((4-fluoro-3-methoxyphenyl)sulfonyl)-6-(6-(trifluoromethyl)pyridin-2-yl)-3,4-dihydro-2H-benzo[b][1,4]-oxazin-2-yl)ethyl)-2-hydroxy-2-methylpropanamide], on RORγ-LBD, the EC50 is less than 500 nM and the “TR-FRET Assay Max Response” value is reported as “**** (The symbol “****” indicates a value greater than 200)”. Besides, on Gal4-RORγ-LBD (setting [1]), the EC50 was less than 500 nM and the “Gal4-RORγ Assay Max Response” value is reported as “** (The symbol “**” indicates a value in the range of greater than 90 to 150)”.

On to `O=C(CO)NC[C@H]1CN(S(=O)(=O)c2cccc(C(F)(F)F)c2)c2cc(-c3cc(F)ccc3F)ccc2O1` [Compound 30BA, (S)-N-((6-(2,5-difluorophenyl)-4-((3-(trifluoromethyl)phenyl)-sulfonyl)-3,4-dihydro-2H-benzo[b][1,4]oxazin-2-yl)methyl)-2-hydroxyacetamide], for which, at RORγ-LBD, the EC50 was less than 500 nM and the “TR-FRET Assay Max Response” value is recorded as “*** (The symbol “***” indicates a value in the range of greater than 150 to 200)”. Besides, at Gal4-RORγ-LBD (setting [1]), the EC50 was less than 500 nM and the “Gal4-RORγ Assay Max Response” value is listed as “** (The symbol “**” indicates a value in the range of greater than 90 to 150)”.

Take `COc1cc(S(=O)(=O)N2C[C@H](CCC(=O)O)Oc3ccc(-c4cccc(Cl)c4)cc32)ccc1F` [Compound 5, (S)-3-(6-(3-chlorophenyl)-4-((4-fluoro-3-methoxyphenyl)sulfonyl)-3,4-dihydro-2H-benzo[b][1,4]oxazin-2-yl)propanoic acid]: on RORγ-LBD, the EC50 was less than 500 nM and the “TR-FRET Assay Max Response” value is “*** (The symbol “***” indicates a value in the range of greater than 150 to 200)”. For the same compound, on Gal4-RORγ-LBD (setting [1]), the EC50 lay within 500 to 5000 nM and the “Gal4-RORγ Assay Max Response” value is “** (The symbol “**” indicates a value in the range of greater than 90 to 150)”.

`CC(=O)N[C@H](C)C(=O)NC[C@H]1CN(S(=O)(=O)c2cccc(C(F)(F)F)c2)c2cc(-c3cc(F)ccc3F)ccc2O1` [Compound 30AT, (R)-2-acetamido-N-(((S)-6-(2,5-difluorophenyl)-4-((3-(trifluoro-methyl)phenyl)sulfonyl)-3,4-dihydro-2H-benzo[b][1,4]-oxazin-2-yl)methyl)propanamide]: at RORγ-LBD, the EC50 is less than 500 nM and the “TR-FRET Assay Max Response” value is reported as “*** (The symbol “***” indicates a value in the range of greater than 150 to 200)”. Moreover, at Gal4-RORγ-LBD (setting [1]), the EC50 was 500 to 5000 nM and the “Gal4-RORγ Assay Max Response” value is “** (The symbol “**” indicates a value in the range of greater than 90 to 150)”.

`O=C(O)CC[C@H]1CN(S(=O)(=O)c2cccc(C(F)(F)F)c2)c2cc(-c3cccc(F)c3Cl)ccc2O1` [Compound 2AH, (S)-3-(6-(2-chloro-3-fluoro-phenyl)-4-((3-(trifluoromethyl)-phenyl)sulfonyl)-3,4-dihydro-2H-benzo[b][1,4]oxazin-2-yl)propanoic acid]: at RORγ-LBD, the concentration giving a half-maximal response (EC50) is less than 500 nM and the “TR-FRET Assay Max Response” value is given as “**** (The symbol “****” indicates a value greater than 200)”. In addition, on Gal4-RORγ-LBD (setting [1]), the EC50 was less than 500 nM and the “Gal4-RORγ Assay Max Response” value is on record as “*** (The symbol “***” indicates a value in the range of greater than 150 to 200)”.

As for `COc1cc(S(=O)(=O)N2C[C@H](CCc3n[nH]c(=O)o3)Oc3ccc(-c4cc(F)ccc4F)cc32)ccc1F` [Compound 28J, (S)-5-(2-(6-(2,5-difluorophenyl)-4-((4-fluoro-3-methoxyphenyl)-sulfonyl)-3,4-dihydro-2H-benzo[b][1,4]oxazin-2-yl)ethyl)-1,3,4-oxadiazol-2(3H)-one], on RORγ-LBD, the EC50 is less than 500 nM and the “TR-FRET Assay Max Response” value is given as “**** (The symbol “****” indicates a value greater than 200)”. Further, on Gal4-RORγ-LBD (setting [1]), the EC50 was less than 500 nM and the “Gal4-RORγ Assay Max Response” value was “** (The symbol “**” indicates a value in the range of greater than 90 to 150)”.
